From PMC11337205, “Unraveling Interspecies Differences in the Phase I Hepatic Metabolism of Alternariol and Alternariol Monomethyl Ether: Closing Data Gaps for a Comprehensive Risk Assessment” (Chemical Research in Toxicology, 2024)

Tests used:
[1] = Pattern of oxidative metabolites in porcine LMs by HR-MS; assay type: in vitro ADME, pig; settings: for Relative peak area of oxidative metabolite: porcine LMs, normalized to the sum of measured peak areas
Description: (§1) The kinetics of the phase I metabolism of AOH and AME was investigated by incubating human, rat (both 1 mg protein/mL), and porcine LMs (2 mg protein/mL) with 1, 10, 20, 50, and 100 μM AOH or 1, 10, 20, and 50 μM AME based on the protocol by Al-Subeihi et al.[34] The incubation solution contained a final concentration of 3 mM NADPH and 1 mM ascorbic acid in 200 mM Tris–HCl (pH 7.4). After preincubation (37 °C, 1 min, mixing at 250–300 rpm), the toxin stock was added in a 1:100 dilution, resulting in a total DMSO content of 1% and the desired toxin concentration. DMSO was selected for this assay because it is the least inhibitory of the solvents studied by Busby et al. on CYP1A1,[35] the primary enzyme involved in the hydroxylation of AOH and AME.[26] The well-established solubility of the test compounds in DMSO and DMSO-containing aqueous buffers facilitated laboratory work and ensured consistency with existing literature, thereby improving the comparability of results across studies, including those of Pfeiffer and colleagues.[25] In a preliminary investigation, incubation times of 5 and 10 min were chosen because they fall within the linear range of the transformation rate–time relationship, thereby ensuring initial rate conditions (Figure S1). When the selected incubation time (0–10 min) passed, one part of the sample was pipetted into two parts of ice-cold extraction solvent (acetonitrile–methanol, 1:1, v/v) for reaction termination. Subsequently, the samples were placed into the freezer (−20 °C) for at least an hour, centrifuged (15 min, 18,000g, 4 °C), and further diluted in methanol–water (3:7, v/v) prior to LC–MS measurements. In the solvent control, the toxin was substituted with DMSO in the incubation solution. Control incubations were performed without the cofactor NADPH or with heat-inactivated microsomes (98 °C, 10 min, mixing at 300 rpm).
Pooled high-resolution MS (HR-MS) samples were analyzed on a Vanquish UHPLC system (Thermo Fisher Scientific, Waltham, MA, USA) connected to a dual-pressure linear trap-quadrupole Orbitrap mass analyzer (Velos ETD, Thermo Fisher Scientific, Waltham, MA, USA). The heated ESI interface (source heater temperature: 400 °C) was operated in both positive and negative modes. The mobile and stationary phases were the same as those for the targeted analysis. The column compartment temperature was kept at 40 °C. A multistep gradient was applied at a flow rate of 0.4 mL/min and started with rinsing the column for 1 min at 10% eluent B. Then, the organic content was linearly raised to 100% until the 11th minute. Subsequently, the column was purged with 100% eluent B for two additional minutes. Finally, the initial eluent composition was reset between minutes 13 and 13.5, followed by a 2 min re-equilibration under these conditions, resulting in a total run time of 15.5 min. Data acquisition and evaluation were performed with the software Skyline (v. 21.1.0.146, MacCoss Lab, Department of Genome Sciences, University of Washington, Seattle, WA, USA), XCalibur (v. 2.2SP1.48), and Chromeleon (v. 7.2.6.; both Thermo Fisher Scientific, Waltham, MA, USA).
As no analytical standards are currently available for the hydroxy (OH) metabolites of AOH and AME, an Alternaria reference mixture containing 4-OH-AOH and 4-OH-AME was used to enable associating peaks with their respective phase I metabolites.

[2] = Pattern of oxidative metabolites in human LMs by HR-MS; assay type: in vitro ADME; settings: human LMs incubated with AME
Description: as §1
Pooled high-resolution MS (HR-MS) samples were analyzed on a Vanquish UHPLC system (Thermo Fisher Scientific, Waltham, MA, USA) connected to a dual-pressure linear trap-quadrupole Orbitrap mass analyzer (Velos ETD, Thermo Fisher Scientific, Waltham, MA, USA). The heated ESI interface (source heater temperature: 400 °C) was operated in both positive and negative modes. The mobile and stationary phases were the same as those for the targeted analysis. The column compartment temperature was kept at 40 °C. A multistep gradient was applied at a flow rate of 0.4 mL/min and started with rinsing the column for 1 min at 10% eluent B. Then, the organic content was linearly raised to 100% until the 11th minute. Subsequently, the column was purged with 100% eluent B for two additional minutes. […]

esophageal cells = system: esophageal cells; set-up: method as in PMID 27422292; settings: cited from earlier work
[3] = Pattern of oxidative metabolites in rat LMs by HR-MS; assay type: in vitro ADME, Sprague–Dawley rat; settings: rat LMs incubated with AME
Description: The kinetics of the phase I metabolism of AOH and AME was investigated by incubating human, rat (both 1 mg protein/mL), and porcine LMs (2 mg protein/mL) with 1, 10, 20, 50, and 100 μM AOH or 1, 10, 20, and 50 μM AME based on the protocol by Al-Subeihi et al.[34] The incubation solution contained a final concentration of 3 mM NADPH and 1 mM ascorbic acid in 200 mM Tris–HCl (pH 7.4). After preincubation (37 °C, 1 min, mixing at 250–300 rpm), the toxin stock was added in a 1:100 dilution, resulting in a total DMSO content of 1% and the desired toxin concentration. DMSO was selected for this assay because it is the least inhibitory of the solvents studied by Busby et al. on CYP1A1,[35] the primary enzyme involved in the hydroxylation of AOH and AME.[26] The well-established solubility of the test compounds in DMSO and DMSO-containing aqueous buffers facilitated laboratory work and ensured consistency with existing literature, thereby improving the comparability of results across studies, including those of Pfeiffer and colleagues.[25] […]
Pooled high-resolution MS (HR-MS) samples were analyzed on a Vanquish UHPLC system (Thermo Fisher Scientific, Waltham, MA, USA) connected to a dual-pressure linear trap-quadrupole Orbitrap mass analyzer (Velos ETD, Thermo Fisher Scientific, Waltham, MA, USA). […]

[4] = Phase I metabolism kinetics (parent toxin loss) in NADPH-fortified porcine liver microsomes, LC-MS/MS; assay type: in vitro ADME, pig; settings: for microsomal CLint: female, Large White, pig, liver microsomes, pH 7.4, porcine LMs, read-out: CLint (intrinsic clearance); for Concentration decrease: porcine LMs
Description: (§2) Pooled human LMs and pooled Sprague–Dawley rat hepatic microsomes, both originating from male donors, were purchased from Sigma-Aldrich (St. Louis, MO, USA) and Gibco, Thermo Fisher Scientific (Waltham, MA, USA), respectively. Porcine LMs were prepared according to an in-house-developed protocol based on the publication of Knights et al.[32] The liver of an approximately four-month-old female “Large White” (or “German Edelschwein”) pig was obtained from a local slaughterhouse. After slaughtering, the liver was placed on ice for about an hour, kept in ice-cold 50 mM tris(hydroxymethyl)aminomethane hydrochloride (Tris–HCl) (pH 7.4) for an additional hour while being transported, and processed immediately.
as §1
(§3) The quantification of selected analytes using external calibration (MS parameters listed in Supporting Information Table S1) was conducted on a high-performance liquid chromatographic system (Dionex UltiMate 3000 UHPLC, Dionex Softron GmbH, Germering, Germany) coupled to a triple quadrupole mass spectrometer (TSQ Vantage, Thermo Fisher Scientific, Waltham, MA, USA), equipped with a heated electrospray ionization (ESI) interface. The applied analytical method is based on Puntscher et al.[28],[36] with slight modifications, which are specified below.
(§4) In brief, the Ascentis Express C18 column (10 cm × 2.1 mm, 2.7 μm, Supelco, Munich, DE), equipped with the Phenomenex SecurityGuard (C18 Cartridges, 4 × 2.0 mm ID, Phenomenex Ltd. Deutschland, Aschaffenburg, Germany), served as the stationary phase. Eluent A was aqueous ammonium acetate (5 mM, pH adjusted to 8.6 with a 25% ammonia solution), and eluent B was methanol. During the first minute, the column was kept at 30% eluent B. Subsequently, the eluent B content was linearly raised to 100% within 6 min. Thereafter, the column was washed with 100% eluent B for 1.5 min. Lastly, the column was re-equilibrated at the initial conditions, reaching an overall run time of 10 min. The autosampler compartment was kept at 10 °C, while the column oven temperature was maintained at 30 °C. […]

[5] = Phase I metabolism kinetics (parent toxin loss) in NADPH-fortified rat liver microsomes, LC-MS/MS; assay type: in vitro ADME, Sprague–Dawley rat; settings: for microsomal CLint: male, Sprague-Dawley, rat, liver microsomes, pH 7.4, rat LMs, read-out: CLint (intrinsic clearance); for Concentration decrease: rat LMs
Description: as §2, §1, §3, §4

[6] = Phase I metabolism kinetics (parent toxin loss) in NADPH-fortified human liver microsomes, LC-MS/MS; assay type: in vitro ADME; settings: for microsomal CLint: human, pH 7.4, human LMs, read-out: CLint (intrinsic clearance)
Description: as §2, §1, §3, §4

[7] = oral administration, rats; cited from earlier work
[8] = Caco-2 cell monolayers; cited from earlier work
[9] = 10 min incubation with 10 μM AME
[10] = Michaelis–Menten model, ratio Vmax/Km
[11] = linear regression, lower concentration range

Structure (SMILES): Cc1cc(O)cc2oc(=O)c3c(O)c(O)c(O)cc3c12 [8-OH-AOH]
- relative abundance among phase I metabolites (in words) ([1]; porcine LMs incubated with AOH): small amounts

Structure (SMILES): COc1cc(O)c2c(=O)oc3cc(O)c(O)c(C)c3c2c1 [2-OH-AME]
- relative abundance among phase I metabolites (in words) ([1]; porcine LMs incubated with AME): main metabolites
- Relative peak area of oxidative metabolite [1, 9]: 30%
- relative abundance among phase I metabolites (in words) [2]: most abundant

Structure (SMILES): COc1cc(O)c2c(=O)oc3c(O)c(O)cc(C)c3c2c1 [4-OH-AME]
- Relative peak area of oxidative metabolite [1, 9]: less than 20%
- relative abundance among phase I metabolites (in words) [2]: most abundant
- genotoxic effects compared with parent compound (esophageal cells): less pronounced genotoxic effects

Structure (SMILES): COc1cc2c(c(O)c1O)c(=O)oc1cc(O)cc(C)c12 [8-OH-AME]
- relative abundance among phase I metabolites (in words) [3]: main metabolites
- relative abundance among phase I metabolites (in words) [2]: small amounts

Structure (SMILES): COc1cc(O)c2c(=O)oc3cc(O)cc(C)c3c2c1 [AME, alternariol 9-O-monomethyl ether]
- microsomal CLint [4, 10]: 19.5 µL/min/mg
- microsomal CLint [4, 11]: 19 µL/min/mg
- Concentration decrease ([4]; 1 µM toxin, 5 min): 16%
- Concentration decrease ([4]; 1 µM toxin, 10 min): 38%
- Concentration decrease ([4]; 10 µM toxin, 5 min): 13%
- Concentration decrease ([4]; 10 µM toxin, 10 min): 24%
- Concentration decrease ([4]; 20 µM toxin, 5 min): 19%
- Concentration decrease ([4]; 20 µM toxin, 10 min): 30%
- Concentration decrease ([4]; 50 µM toxin, 5 min): 20%
- Concentration decrease ([4]; 50 µM toxin, 10 min): 27%
- microsomal CLint [5, 10]: 45.2 µL/min/mg
- microsomal CLint [5, 11]: 46.2 µL/min/mg
- Concentration decrease ([5]; 1 µM toxin, 5 min): 28%
- Concentration decrease ([5]; 1 µM toxin, 10 min): 43%
- Concentration decrease ([5]; 10 µM toxin, 5 min): 24%
- Concentration decrease ([5]; 10 µM toxin, 10 min): 48%
- Concentration decrease ([5]; 20 µM toxin, 5 min): 20%
- Concentration decrease ([5]; 20 µM toxin, 10 min): 48%
- Concentration decrease ([5]; 50 µM toxin, 5 min): 17%
- Concentration decrease ([5]; 50 µM toxin, 10 min): 48%
- Concentration decrease ([6]; human LMs, 1 µM toxin, 5 min): 35%
- Concentration decrease ([6]; human LMs, 1 µM toxin, 10 min): 59%
- Concentration decrease ([6]; human LMs, 10 µM toxin, 5 min): 26%
- Concentration decrease ([6]; human LMs, 10 µM toxin, 10 min): 19%
- Concentration decrease ([6]; human LMs, 20 µM toxin, 5 min): 8%
- Concentration decrease ([6]; human LMs, 20 µM toxin, 10 min): 26%
- Concentration decrease ([6]; human LMs, 50 µM toxin, 5 min): 2%
- Concentration decrease ([6]; human LMs, 50 µM toxin, 10 min): 47%
- Vmax (maximum transformation rate) ([6]; human LMs, within 10 min, Michaelis–Menten model): 772 pmol/mg/min
- microsomal CLint ([6]; male, liver microsomes, Michaelis–Menten model, ratio Vmax/Km): 26.3 µL/min/mg
- microsomal CLint ([6]; male, liver microsomes, linear regression, lower concentration range): 15.8 µL/min/mg
- Km ([6]; male, liver microsomes, pH 7.4, human LMs 1 mg protein/mL, NADPH, within 10 min, Michaelis–Menten model, read-out: Km (Michaelis constant)): 29.4 µM
- absorbed fraction [7]: less than 10%
- intestinal absorption [8]: limited intestinal absorption

Structure (SMILES): Cc1cc(O)c(O)c2oc(=O)c3c(O)cc(O)cc3c12 [4-OH-AOH]
- relative abundance among phase I metabolites (in words) ([1]; porcine LMs incubated with AOH): primary oxidative metabolite
- Relative peak area of oxidative metabolite ([1]; 10 min incubation with 10 μM AOH): 50%
- genotoxic effects compared with parent compound (esophageal cells): less pronounced genotoxic effects
